“And” between values parts separate entries of the source, which are not always exact repeats. Identical values can stand only once.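 Five compound concentrations were applied to cells in 96-well plates for 48 hours; endpoints were derived by simple linear interpolation of the resulting dose-response curve. GI50 = concentration required for 50% inhibition of growth. Definition used: TGI = concentration required for complete inhibition of growth.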
Tested on: U251 CNS
Experiment: NCI anticancer screen, dose series, 48 h

| SMILES | GI50 | TGI |
| --- | --- | --- |
| CCOC(=O)c1cc(C#N)c(=O)n(/N=C(\C)c2ccncc2)c1O | > 100 µM | > 100 µM |

Tested on: UACC-62 melanoma
Experiment: NCI anticancer screen, dose series, 48 h

| SMILES | GI50 | TGI |
| --- | --- | --- |
| COc1cc2c(cc1OCCCOc1cc3c(cc1OC)C(=O)N1C[C@H](F)C[C@H]1C=N3)N=C[C@@H]1C[C@@H](F)CN1C2=O | 4.79 µM | 17.5 µM |
| c1ccc2c(c1)CCC/C2=N\OCC1CO1 (stereo not given) | – | > 100 µM |
| CC/C(C)=C1\CCC(CN2CCOCC2)C1=O (stereo not given) | – | 32.7 µM |
| COC(=O)C1C(C(=O)OC)C2(OC)c3ccccc3-c3ccccc3C12 (stereo not given) | – | > 100 µM |
| O=C1OC(CC(=O)c2ccc(Cl)c(Cl)c2)C(Cl)=C1Cl (stereo not given) | – | > 100 µM |
| CCN(CC)CC(O)CNc1ccc(NCC2CO2)c2c1C(=O)c1ccccc1C2=O (stereo not given) | 0.426 µM | 2.3 µM |
| CC(=O)c1cccc(N2COC(C)(C)c3nc4ccccc4n3C2)c1 | – | > 100 µM |
| O=[N+]([O-])c1cccc(C2N3CCCCC3[C@@H]3c4[nH]c5ccccc5c4CCN23)c1 (stereo not given in full) | – | 19.9 µM |
| CCOC(=O)NC(=O)c1cn(CC(=O)NCC(=O)NCC(=O)NCCCN2CCN(CCCNC(=O)CNC(=O)CNC(=O)Cn3cc(C(=O)NC(=O)OCC)c(=O)[nH]c3=O)CC2)c(=O)[nH]c1=O | – | > 100 µM |
| O=S(=O)(N/N=C/c1ccc(/C=N/NS(=O)(=O)c2ccccc2)cc1)c1ccccc1 | – | 54.1 µM |
| CC[C@@H]1OC2(C)CC(S(=O)(=O)c3ccccc3O)CC1O2 (stereo not given in full) | – | > 100 µM |
| CCOC(=O)C(N)C[S][Sn]([CH3])([CH3])[Cl] (stereo not given) | 65.9 µM | > 100 µM |
| NNC(=O)/C(=C/c1ccc(Cl)c(Cl)c1)NC(=O)c1ccccc1 | – | > 100 µM |
| CC(=O)OCC1OC(N2C(=O)C(=O)c3cc(C)ccc32)C(OC(C)=O)C(OC(C)=O)C1OC(C)=O (stereo not given) | – | > 100 µM |
| O=C1c2ccccc2-c2cccc3ccc(Cc4ccc5ccccc5c4)c1c23 | – | > 100 µM |
| COc1cc(OC)c(/C=C/S(=O)(=O)Cc2cnc(OC)c(N)c2)c(OC)c1 | < 0.01 µM | > 100 µM |
| CCOC(=O)C(Cc1c[nH]c2ccc(N)cc12)(NC(C)=O)C(=O)OCC | > 1000 µM | > 1000 µM |
| CN1CCN(CCCN)CC1 | – | > 100 µM |
| COc1cc(Cl)c2c3c(c(C(C)=O)oc13)CCC2 | – | > 100 µM |

| SMILES | GI50 | TGI |
| --- | --- | --- |
| CC(=O)Nc1ccc(C(=O)NN2C(=O)C(Cl)C2c2ccc(Cl)cc2)cc1 (stereo not given) | – | > 100 µM |
| Nc1ccc(N(S(=O)(=O)c2ccccc2)S(=O)(=O)c2ccccc2)c(Cl)c1 | – | > 100 µM |
| CCCCc1c2c(nc3c1CCC/C3=C\c1ccccc1)C(=O)CCC2 | – | 44 µM |
| CC(O)c1cccc(NCc2c3ccccc3c(=O)n3c2oc2ccccc23)c1 (stereo not given) | 5.45 µM | 22.3 µM |
| C=CC1(C(=O)O)CCC(C(C)(C)C)CC1 (stereo not given) | – | > 100 µM |
| NC(=O)C(=Cc1ccc(C(O)P(=O)(O)O)cc1)C(N)=O (stereo not given) | – | > 100 µM |
| O=C(Nc1cc(Cl)c(Cl)cc1Cl)C(=O)C1C=CCS1(=O)=O (stereo not given) | – | > 100 µM |
| CCNC(=O)CCN(C(=O)O)S(=O)(=O)c1ccc(NC(=O)c2ccccc2)cc1 | – | > 100 µM |
| O=C(/C=C/c1ccc([N+](=O)[O-])o1)N1CCN(Cc2ccccc2)CC1 | – | 20.6 µM |
| CC1C[C@@]2(c3ccccc3)C(=O)CCC[C@H]2N1 (stereo not given in full) | – | > 100 µM |
| O=[N+]([O-])c1cccc(/C=N\NS(=O)(=O)c2ccc(Cl)cc2)c1O | – | > 100 µM |
| CC(=O)N[C@H]1C=C[C@@H]2/C=C(C)/C=C/[C@@H](C)[C@H]([C@H](C)[C@H](O)[C@@H](C)NC(C)=O)OC(=O)/C=C/C=C(C)\C=C\[C@]2(C)C1 | 0.0228 µM and 0.0315 µM | 4.65 µM and 13.3 µM |
| CC1=C(C(=O)Nc2ccccc2C)C(c2ccc(Cl)c(Cl)c2)C(C(=O)Nc2ccccc2C)=C(C)N1 | – | 39.2 µM |
| Cc1cc(I)cc(CN(C)CCCN2CCSCC2)c1O | 32 µM | > 100 µM |
| CCCCOC(=O)NC(=O)c1cn(CCCOC(=O)CCCCCCCCC(=O)OCCCn2cc(C(=O)NC(=O)OCCCC)c(=O)[nH]c2=O)c(=O)[nH]c1=O | – | > 100 µM |
| Cc1[nH]c2ccccc2c1C1Cc2ccccc2N1C(=O)/C=C\C(=O)O (stereo not given) | – | 72.3 µM |
| CCN(CC)CCC(=O)NC1c2ccc(Cl)cc2Oc2c(C)cccc21 (stereo not given) | – | 34 µM |
| Nc1c(C(=O)c2ccc(Cl)cc2)sc(Nc2ccccc2)c1-c1nc2ccccc2s1 | 2.27 µM | > 100 µM |
| CCOC(=O)c1cc(C#N)c(=O)n(/N=C(\C)c2ccncc2)c1O | > 100 µM | > 100 µM |
